Data on three compounds can be found in the NIST ThermoML archive (doi:10.1021/acs.jced.5b00094).

± gives the expanded uncertainty stated by the source.

This data set is described as follows: wn = mass fraction of the nth substance listed. The following applies: 348 K, 101 kPa, Liquid, Pycnometric method.

Take `[Cl-].[Cl-].[Sr+2]` [strontium chloride] + O: where the note is “w1 = 0.4775”, the mass density was 1620.5 ± 21 kg/m3.

Take `[Cl-].[Na+]` [sodium chloride] + O: where the note is “w1 = 0.2745”, the mass density was 1183 ± 1.4 kg/m3.

Regarding `[Cl-].[K+]` [potassium chloride] + O, the mass density (w1 = 0.332) was 1204 ± 1.6 kg/m3.
